Entries after “also recorded” stand apart in the source; their conditions may differ.
How the values were obtained:
Type in all cases: in vivo, mouse
ApoE-deficient mice [1] = test: Bone architecture by micro-CT of the femur; settings: 30 mg/kg/day, treatment up to 21 weeks (31 weeks of age)
Source text: Four cohorts of mice were used in these studies (FIGS. 8A and 9A). Cohorts 1 and 2 were devoted to the in vivo and ex vivo characterization of TNAP-associated plaque calcification. 6-week-old ApoE-deficient male mice were received at the animal facility and placed in conventional cages with 5 mice per cage. Mice were maintained on a 12-hrs light-dark cycle (7:00 am-7:00 pm) and were supplied with food and water ad libitum. From 10 weeks of age, they were fed ad libitum with a high fat diet (HFD, D12108C, Research Diets, New Brunswick, USA) containing 40% fat (kcal) and 1.25% cholesterol (weight). In cohort 1, 8 mice were sacrificed every 2 weeks between weeks 17 to 31, for histological and molecular analyses. Total body weight was measured weekly after starting the HFD. The sacrifice was done after anesthesia with isoflurane and intracardiac blood puncture by CO2 inhalation. Tissues were harvested as described below. The abdominal aorta was used for quantitative polymerase chain reaction (PCR) analyses. Mice from cohort 2 were used to analyze aorta calcification with ^18F—NaF μPET and μCT and to compare the in vivo data with the ex vivo results obtained in cohort 1. Animals were transferred from the animal facility to the Cermep imaging platform. […] Plaque calcification was analyzed at 25 weeks, and possible side effects of TNAP inhibition were explored in mice aged 31 weeks. […]

ApoE-deficient mice [2] = test: Plaque histology: osteosense staining of calcifications, oil red O staining; settings: ApoE-deficient mice on HFD, 30 mg/kg/day from 10 to 25 weeks
Source text: (§1) Four cohorts of mice were used in these studies (FIGS. 8A and 9A). Cohorts 1 and 2 were devoted to the in vivo and ex vivo characterization of TNAP-associated plaque calcification. 6-week-old ApoE-deficient male mice were received at the animal facility and placed in conventional cages with 5 mice per cage. Mice were maintained on a 12-hrs light-dark cycle (7:00 am-7:00 pm) and were supplied with food and water ad libitum. From 10 weeks of age, they were fed ad libitum with a high fat diet (HFD, D12108C, Research Diets, New Brunswick, USA) containing 40% fat (kcal) and 1.25% cholesterol (weight). In cohort 1, 8 mice were sacrificed every 2 weeks between weeks 17 to 31, for histological and molecular analyses. Total body weight was measured weekly after starting the HFD. The sacrifice was done after anesthesia with isoflurane and intracardiac blood puncture by CO2 inhalation. Tissues were harvested as described below. The abdominal aorta was used for quantitative polymerase chain reaction (PCR) analyses. Mice from cohort 2 were used to analyze aorta calcification with ^18F—NaF μPET and μCT and to compare the in vivo data with the ex vivo results obtained in cohort 1. Animals were transferred from the animal facility to the Cermep imaging platform. Cohorts 3 and 4 were used to determine in vivo and ex vivo the impact of TNAP inhibition on the vasculature, liver, bones, and kidneys. According to the results obtained in cohorts 1 and 2, TNAP inhibitor SBI-425 (30 mg/kg/day, formulated as a food admixture in the HFD) was administered in a preventive manner from 10 weeks of age. Treatment was stopped at 25 weeks or 31 weeks of age. Plaque calcification was analyzed at 25 weeks, and possible side effects of TNAP inhibition were explored in mice aged 31 weeks. Mice in cohort 3 (2 groups of 13 mice) were used for ex vivo analysis, and mice in cohort 4 (2 groups of 12 mice) for in vivo imaging and ex vivo analyses.
After euthanasia, the heart and vasculature were perfused with sterile NaCl 0.9%. The aortic root and the aortic arch, with the major arteries that stem from them (brachiocephalic, left common carotid and left subclavian), were dissected and frozen in optimal cutting temperature medium (OCT, Thermo Scientific) and stored at −80° C. before serial cryo-sectioning. The aortic root, aortic arch and carotid were dissected under a microscope, frozen in optimal cutting medium (OCT, Thermo Scientific) and stored at −80° C. before serial cryo-sectioning. […] Calcification was imaged by near infrared fluorescence (NIRF) with the calcium tracer osteosense (OS) (PerkinElmer, ex/em 650/680 nm). […] Quantification was performed by computer image analysis using Image J software (NIH, Bethesda, Md.) by averaging of measurements from 2 sections of 15 μm apart using ImageJ software. […]

ApoE-deficient mice [3] = test: Quantitative PCR of transcript levels in the abdominal aorta; settings: 30 mg/kg/day, 25 weeks, vs control
Source text: as §1
Mouse tissues: total RNAs were extracted from grinded abdominal aorta with the NucleoSpin RNA II kit (Macherey-Nagel) following the manufacturers' protocol. The quantity and quality of RNA were determined using a NanoDrop. RNA (1 μg) was retro-transcribed into cDNA with Superscript II reverse transcriptase (Life Technologies). PCR analysis was conducted using SYBR green Supermix (Biorad) on the iCycler Real-Time Detection system (Biorad). Fold change in mRNA expression was calculated using the 2^−Δcq method by the CFX Manager software (Biorad). Data were normalized by 3 housekeeping genes (HPRT, Actin and Rpl13a) levels.

With COc1ccc(Cl)cc1S(=O)(=O)Nc1cncc(C(N)=O)c1 [SBI-425] as the molecule, how does the bone architecture (ApoE-deficient mice [1]) read?
Its bone architecture is “no effect; also recorded: did not significantly change”.

What about the “mice that formed calcifications, by histology” value (ApoE-deficient mice [2]; OS staining, control 13 out of 13) of the same molecule?
The value was 9 out of 13.

What about the “number of calcifications per mice” value (ApoE-deficient mice [2]; OS staining, vs control) of the same molecule?
The value was “lower”.

And the “plaque lipids (lipid surface)” value (ApoE-deficient mice [2]; oil red O, vs control)?
Its value is “less lipids”.

What about the “plaque size (plaque surface)” value (ApoE-deficient mice [2]; oil red O, vs control, 30 mg/kg/day) of the same molecule?
Its value is “smaller; also recorded: reduced”.

And the “Acan transcript level (chondrocyte marker), abdominal aorta” value (ApoE-deficient mice [3])?
The value was “not accompanied by reduced levels”.

What about the “Alpl transcript level (chondrocyte marker), abdominal aorta” value (ApoE-deficient mice [3]) of the same molecule?
The value was “not accompanied by reduced levels”.

And the “Cd68 transcript level (inflammatory marker), abdominal aorta” value (ApoE-deficient mice [3])?
Its value is “significantly decreased”.

And the “Il6 transcript level (inflammatory marker), abdominal aorta” value (ApoE-deficient mice [3])?
Its value is “significantly decreased”.

What about the “Il8 transcript level (inflammatory marker), abdominal aorta” value (ApoE-deficient mice [3]) of the same molecule?
Its value is “significantly decreased”.

And the “Opn transcript level (inflammatory marker), abdominal aorta” value (ApoE-deficient mice [3])?
Its value is “significantly decreased”.

And the “Rankl transcript level (inflammatory marker), abdominal aorta” value (ApoE-deficient mice [3])?
Its value is “significantly decreased”.

And the “Runx2 transcript level (chondrocyte marker), abdominal aorta” value (ApoE-deficient mice [3])?
The value was “not accompanied by reduced levels”.

What about the “Sox9 transcript level (chondrocyte marker), abdominal aorta” value (ApoE-deficient mice [3]) of the same molecule?
Its value is “not accompanied by reduced levels”.
